In paper PMC6111308, “Antimycobacterial, Enzyme Inhibition, and Molecular Interaction Studies of Psoromic Acid in Mycobacterium tuberculosis: Efficacy and Safety Investigations” (Journal of Clinical Medicine, 2018):

Molecular target: T1, arylamine-N-acetyltransferase (TBNAT) (Mycobacterium tuberculosis, UniProt P9WJI5)
T1 construct: gene nat
T1 sequence (P9WJI5 1-283): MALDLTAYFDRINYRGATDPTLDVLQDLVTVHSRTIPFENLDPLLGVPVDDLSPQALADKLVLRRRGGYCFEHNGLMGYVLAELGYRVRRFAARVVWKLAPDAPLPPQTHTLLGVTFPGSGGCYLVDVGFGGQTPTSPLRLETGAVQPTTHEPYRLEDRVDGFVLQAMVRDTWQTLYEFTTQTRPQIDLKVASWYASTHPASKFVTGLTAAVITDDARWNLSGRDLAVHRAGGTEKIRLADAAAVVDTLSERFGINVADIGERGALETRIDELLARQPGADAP
Experiment: biochemical

Row | Structure (SMILES) | IC50
1 | NNC(=O)c1ccncc1 [INH, isoniazid] | 6.2 µM
2 | COc1cc(C(=O)O)c2c(c1C)OC(=O)c1c(C)cc(O)c(C=O)c1O2 [PA, psoromic acid] | 8.7 µM
